Measurements taken from the supplement of paper PMC10307832.

Legend:
Experiment in all cases: relative viability (nuclei count vs DMSO), 5 days (fraction); higher = more cells survive
Halofuginone + Foretinib = compound: O=C(C[C@H]1NCCC[C@@H]1O)Cn1cnc2cc(Br)c(Cl)cc2c1=O (racemic) [Halofuginone] + COc1cc2c(Oc3ccc(NC(=O)C4(C(=O)Nc5ccc(F)cc5)CC4)cc3F)ccnc2cc1OCCCN1CCOCC1 [Foretinib] (partner 0.25 µM)
How it was run: (§1)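 Relative viability was taken as the ratio of nuclei in treated wells to nuclei in vehicle wells. Lung cancer cell lines in 1536-well plates received compounds by pin tool one day after seeding, either one drug alone or a fixed anchor-drug dose plus five library-drug doses (not always all listed) in √10 steps. Nuclei were counted on 4× images after 5 days of treatment, and values are medians of duplicate plates.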

Decitabine + Alpelisib = compound: Nc1ncn([C@H]2C[C@H](O)[C@@H](CO)O2)c(=O)n1 [Decitabine] + Cc1nc(NC(=O)N2CCC[C@H]2C(N)=O)sc1-c1ccnc(C(C)(C)C(F)(F)F)c1 [Alpelisib] (partner 2 µM)
How it was run: as §1

Cediranib + Dasatinib = compound: COc1cc2c(Oc3ccc4[nH]c(C)cc4c3F)ncnc2cc1OCCCN1CCCC1 [Cediranib] + Cc1nc(Nc2ncc(C(=O)Nc3c(C)cccc3Cl)s2)cc(N2CCN(CCO)CC2)n1 [Dasatinib] (partner 0.075 µM)
How it was run: as §1

[1] = compound: O=C(C[C@H]1NCCC[C@@H]1O)Cn1cnc2cc(Br)c(Cl)cc2c1=O (racemic) [Halofuginone] + Nc1ncn([C@H]2C[C@H](O)[C@@H](CO)O2)c(=O)n1 [Decitabine] (partner 2 µM)
How it was run: as §1

Cell Line	relative viability (Halofuginone + Foretinib; first compound 0.001 µM)	relative viability (Halofuginone + Foretinib; first compound 0.003162 µM)	relative viability (Halofuginone + Foretinib; first compound 0.01 µM)	relative viability (Halofuginone + Foretinib; first compound 0.03162 µM)	relative viability (Halofuginone + Foretinib; first compound 0.1 µM)	relative viability (Decitabine + Alpelisib; first compound 0.04 µM)	relative viability (Decitabine + Alpelisib; first compound 0.1265 µM)	relative viability (Decitabine + Alpelisib; first compound 0.4 µM)	relative viability (Decitabine + Alpelisib; first compound 1.265 µM)	relative viability (Decitabine + Alpelisib; first compound 4 µM)	relative viability (Cediranib + Dasatinib; first compound 0.04 µM)	relative viability (Cediranib + Dasatinib; first compound 0.1265 µM)	relative viability (Cediranib + Dasatinib; first compound 0.4 µM)	relative viability (Cediranib + Dasatinib; first compound 1.265 µM)	relative viability (Cediranib + Dasatinib; first compound 4 µM)	relative viability ([1]; first compound 0.001 µM)	relative viability ([1]; first compound 0.003162 µM)	relative viability ([1]; first compound 0.01 µM)	relative viability ([1]; first compound 0.03162 µM)	relative viability ([1]; first compound 0.1 µM)
NCI-H322M	0.896	0.948	0.913	0.833	0.374	0.659	0.613	0.71	0.498	0.403	0.239	0.277	0.247	0.258	0.255	0.71	0.657	0.681	0.657	0.53
NCI-H1666	0.979	0.934	1.01	0.952	0.936	0.797	0.753	0.606	0.489	0.473	0.831	0.888	0.797	0.829	0.762	0.769	0.601	0.724	0.795	0.794
NCI-H1793	0.814	0.74	0.538	0.67	0.429	0.695	0.565	0.573	0.433	0.392	0.317	0.415	0.398	–	0.501	0.511	0.6	0.505	0.5	0.21
NCI-H1437	1.31	1.26	1.22	1.2	1.21	0.787	0.679	0.464	0.246	0.215	0.455	0.543	0.445	0.385	0.399	0.621	0.555	0.513	0.522	0.522
NCI-H358	0.754	0.393	0.448	0.212	0.0804	0.747	0.519	0.383	0.266	0.238	0.174	0.239	0.194	0.137	0.173	0.227	0.239	0.2	0.135	0.119
NCI-H1355	1.02	0.95	0.88	0.983	0.884	0.632	0.536	0.412	0.295	0.266	0.686	0.745	0.658	0.655	0.747	0.401	0.332	0.359	0.351	0.385
SK-LU-1	0.921	0.8	0.753	0.759	0.406	0.62	0.637	0.485	0.5	0.284	0.184	0.244	0.175	0.175	0.202	0.705	0.599	0.714	0.606	0.422
NCI-H2170	0.987	1	0.968	0.478	1.03	0.558	0.674	0.616	0.43	0.315	0.523	0.713	0.605	0.384	0.566	0.479	0.47	0.453	0.489	0.457
NCI-H2347	1.35	0.929	0.994	0.841	1	0.898	0.848	0.675	0.597	0.665	0.262	0.288	0.268	0.277	0.381	0.595	0.676	0.567	0.65	0.659
A-427	0.979	1.03	1.02	1.06	0.915	0.695	0.462	0.303	0.265	0.232	0.683	–	0.672	0.596	0.919	0.626	0.596	0.541	0.564	0.52
HCC-366	0.952	0.973	0.876	1.02	0.514	0.455	0.597	0.31	0.133	0.0897	0.649	0.622	0.553	0.636	0.711	0.385	0.418	0.339	0.373	0.336
HCC-78	0.593	0.635	0.488	0.684	0.552	0.324	0.293	0.285	0.204	0.247	0.376	0.363	0.405	0.29	0.406	0.688	0.678	0.667	0.69	0.714
PC-14	0.937	0.977	0.859	0.903	0.8	0.623	0.723	0.411	0.196	0.18	0.235	0.27	0.243	0.224	0.0965	0.231	0.273	0.237	0.259	0.0807
NCI-H2087	1.28	1.14	1.04	1.29	0.331	0.683	0.564	0.487	0.338	0.36	0.872	0.953	0.801	0.944	0.905	0.3	0.356	0.308	0.27	0.228
HOP-62	1.09	1.22	1.02	0.96	0.704	0.652	0.323	0.152	0.124	0.125	0.698	0.909	0.577	0.617	0.77	0.233	0.224	0.194	0.206	0.199
EKVX	0.806	0.794	0.947	0.794	0.293	0.635	0.565	0.522	0.393	0.318	0.534	0.625	0.564	0.582	0.591	0.317	0.313	0.281	0.354	0.276
EMC-BAC-2	1.06	0.972	0.986	0.78	0.423	0.718	0.699	0.481	0.442	0.41	0.316	0.603	0.365	0.309	0.314	0.989	1	0.917	0.874	0.409
HARA	0.997	0.954	0.934	0.896	0.493	0.73	0.749	0.474	0.365	0.249	0.193	–	0.247	0.237	0.239	0.664	0.648	0.611	0.591	0.434
LU99A	0.8	0.725	0.817	0.814	0.768	0.466	0.7	0.625	0.504	0.389	0.504	0.465	0.513	0.433	0.655	0.783	1.01	0.846	0.769	0.879
NCI-H1944	0.865	0.89	0.853	0.899	0.561	0.874	0.797	0.725	0.473	0.435	0.216	0.227	0.221	0.193	0.236	0.4	0.435	0.396	0.407	0.451
LK-2	1.03	1.42	1.29	0.972	0.875	–	0.986	0.73	0.553	0.504	0.283	0.224	0.331	0.212	0.262	0.309	0.261	0.337	0.328	0.286
NCI-H441	1.08	1.03	0.823	0.643	0.362	0.412	0.334	0.276	0.214	0.259	0.466	–	0.678	0.559	0.772	0.29	0.262	0.262	0.275	0.234
NCI-H23	1	0.919	0.852	0.991	0.478	0.604	0.391	0.275	0.218	0.238	0.729	–	0.7	0.375	1.07	0.333	0.314	0.313	0.346	0.273
NCI-H647	1.18	1.23	1.16	0.979	0.528	0.971	0.858	0.632	0.201	0.254	0.215	0.177	0.102	0.22	0.224	0.408	0.452	0.432	0.334	0.215
201T	1.09	1.09	0.931	0.558	0.193	1	1.08	1.12	0.949	0.923	0.622	0.67	0.628	0.575	0.582	0.844	0.896	0.857	0.792	0.845
NCI-H1734	0.961	0.809	0.831	0.751	0.485	0.5	0.615	0.535	0.399	0.324	0.463	0.647	0.479	0.364	0.518	0.542	0.508	0.522	0.491	0.293
NCI-H596	0.885	0.804	0.78	0.69	0.314	0.449	0.46	0.462	0.451	0.407	0.67	0.616	0.548	–	0.618	1.01	0.961	1.09	1.01	0.775
